Results: patent publication US20240173330A1, “USE OF ATR INHIBITORS IN COMBINATION WITH PARP INHIBITORS FOR TREATING CANCER” (Repare Therapeutics Inc., priority 2021, published 2024)

Assays:
Type in all cases: cell-based
[1] = test system: tumor cells that employ the Alternative Lengthening of Telomeres (ALT) mechanism; test: Combination against ALT tumor cells; settings: combination of ATR inhibitor with PARP inhibitor
Description: In addition to tumors carrying the above-mentioned genetic alterations, the combination of ATR inhibitors (e.g., Compound 121) with PARP inhibitors (e.g., 5-[4-[(7-ethyl-6-oxo-5H-1,5-naphthyridin-3-yl)methyl]piperazin-1-yl]-N-methyl-pyridine-2-carboxamide) may be effective against tumor cells that employ the Alternative Lengthening of Telomeres (ALT) mechanism.

[2] = test system: RNASEH2B+/+ and RNASEH2B−/− cells; test: Synergy between ATR inhibitor and PARP inhibitor in RNASEH2B+/+ and RNASEH2B−/− cells; settings: combination of ATR inhibitor and PARP inhibitor
Description: An ATR inhibitor (e.g., compound 121) may synergize with a PARP inhibitor (e.g., 5-[4-[(7-ethyl-6-oxo-5H-1,5-naphthyridin-3-yl)methyl]piperazin-1-yl]-N-methyl-pyridine-2-carboxamide) in RNASEH2B+/+ and RNASEH2B−/− cells. Importantly, in RNASEH2B−/− cells, synergy (e.g., maximum synergy) may be achieved at lower concentrations of an ATR inhibitor (e.g., compound 121) and lower concentrations of the PARP inhibitor (e.g., 5-[4-[(7-ethyl-6-oxo-5H-1,5-naphthyridin-3-yl)methyl]piperazin-1-yl]-N-methyl-pyridine-2-carboxamide) than in RNASEH2B+/+ cells. As a result, the apparent IC50 of the PARP inhibitor may shift in the presence of the ATR inhibitor (e.g., compound 121).
In addition to selecting a sensitized genetic background, tolerability of the combination treatment with an ATR inhibitor and PARP inhibitor can be improved by optimizing dosing schedules (Fang et al., Cancer Cell, 35:851-867, 2019). To guide the combined dosing of the ATR inhibitor (e.g., compound 121) and the PARP inhibitor (e.g., 5-[4-[(7-ethyl-6-oxo-5H-1,5-naphthyridin-3-yl)methyl]piperazin-1-yl]-N-methyl-pyridine-2-carboxamide) in RNASEH2B-deficient tumor cells, a continuous longer (e.g., 168 h) concomitant treatment of RNASEH2B+/+ and −/− cells with both compounds may be compared to a shorter (e.g., either a 48 or 72 h) treatment followed by removal of compounds and growth in drug-free media. […]

[3] = test system: isogenic cell lines lacking CDK12 or BRCA2; test: 48-hr combination treatment of isogenic cell lines lacking CDK12 or BRCA2; settings: 48-hr treatment with combination
Description: The optimized dosing schedule may be applicable to cells carrying mutations not only in RNASEH2B, but additional genes.

SMILES	effectiveness of combination against ALT tumor cells [1]	synergy of ATR inhibitor with PARP inhibitor [2]	synergistic sensitization [3]
C[C@@H]1COCCN1c1cc([C@@]2(O)C[C@H]3CC[C@@H](C2)O3)c2cnn(-c3cc[nH]n3)c2n1 [compound 121]	effective	synergize	synergistically sensitize
CCc1cc2ncc(CN3CCN(c4ccc(C(=O)NC)nc4)CC3)cc2[nH]c1=O [5-[4-[(7-ethyl-6-oxo-5H-1,5-naphthyridin-3-yl)methyl]piperazin-1-yl]-N-methyl-pyridine-2-carboxamide]	effective	synergize	synergistically sensitize
